{"source": "ChEMBL document CHEMBL1150734", "about": "“Marine soft corals of the genus Pseudopterogorgia: a resource for novel anti-inflammatory diterpenoids” (J Nat Prod, 1987)", "key": {"[1]": {"test_system": "Mus musculus", "assay": "Antiinflammatory activity in ip dosed mouse assessed as reduction PMA-induced ear edema", "format": "functional"}, "[2]": {"test_system": "Mus musculus", "assay": "Antiinflammatory activity in mouse assessed as reduction PMA-induced ear edema at 50 ug/ear administered relative to control", "format": "functional", "design": "scale not given: the % may be the effect or the level left", "details": "at 50 µg/ear"}, "[3]": {"test_system": "Mus musculus", "assay": "Antiinflammatory activity in ip dosed mouse assessed as inhibition of writhing", "format": "functional"}, "[4]": {"assay": "Inhibition of nuclear division of fertilized sea urchin egg", "details": "echinoidea"}, "[5]": {"assay": "Inhibition of cell division of fertilized sea urchin egg", "details": "echinoidea"}, "[6]": {"assay": "Inhibition of tubulin polymerization"}, "[7]": {"test_system": "Mus musculus", "assay": "Antiinflammatory activity in mouse assessed as reduction PMA-induced ear edema", "format": "functional"}}}
{"molecule": "CC(=O)O[C@H]1[C@H](Oc2c(O)c(C)c3c4c2[C@@H](C)CC[C@@H]4[C@@H](C)C[C@@H]3C=C(C)C)OC[C@@H](O)[C@@H]1O", "note": "[PSEUDOPTEROSIN B]", "values": [{"measurement": "ED50", "setting": "[1]", "result": 10, "unit": "mg/kg"}, {"measurement": "Activity", "setting": "[2]", "result": 75, "unit": "%"}, {"measurement": "ED50", "setting": "[3]", "result": 4, "unit": "mg/kg"}]}
{"molecule": "C=C(C)[C@H]1C2=CC(C(=O)OC)=C(C[C@H](C(C)C)[C@H]3O[C@H]3C3=C[C@H]1OC3=O)O2", "note": "[PSEUDOPTEROLIDE]", "values": [{"measurement": "Activity", "setting": "[4]", "result": "Non-toxic"}, {"measurement": "Activity", "setting": "[5]", "result": "Non-toxic"}, {"measurement": "ED50", "setting": "[6]", "result": 8, "unit": "µg/mL"}, {"measurement": "Activity", "setting": "[2]", "result": 83, "unit": "%"}]}
{"molecule": "CC(=O)O[C@@H]1CO[C@@H](Oc2c(O)c(C)cc3c2[C@@H](C)CC[C@@H]3[C@@H](C)CCC=C(C)C)[C@@H](O)[C@@H]1O", "values": [{"measurement": "Activity", "setting": "[2]", "result": 75, "unit": "%"}]}
{"molecule": "CC(=O)O[C@@H]1[C@@H](O)[C@H](Oc2c(O)c(C)c3c4c2[C@@H](C)CC[C@@H]4[C@@H](C)C[C@@H]3C=C(C)C)OC[C@H]1O", "note": "[PSEUDOPTEROSIN C]", "values": [{"measurement": "ED50", "setting": "[1]", "result": 10, "unit": "mg/kg"}, {"measurement": "Activity", "setting": "[2]", "result": 75, "unit": "%"}, {"measurement": "ED50", "setting": "[3]", "result": 4, "unit": "mg/kg"}]}
{"molecule": "CC(=O)O[C@H]1[C@H](O)[C@H](Oc2c(O)c(C)cc3c2[C@@H](C)CC[C@@H]3[C@@H](C)CCC=C(C)C)OC[C@H]1O", "values": [{"measurement": "Activity", "setting": "[2]", "result": 75, "unit": "%"}]}
{"molecule": "CC(=O)O[C@@H]1CO[C@@H](Oc2c(O)c(C)c3c4c2[C@@H](C)CC[C@@H]4[C@@H](C)C[C@@H]3C=C(C)C)[C@H](O)[C@H]1O", "note": "[PSEUDOPTEROSIN D]", "values": [{"measurement": "ED50", "setting": "[1]", "result": 10, "unit": "mg/kg"}, {"measurement": "Activity", "setting": "[2]", "result": 75, "unit": "%"}, {"measurement": "ED50", "setting": "[3]", "result": 4, "unit": "mg/kg"}]}
{"molecule": "CC(=O)O[C@@H]1[C@H](Oc2c(O)c(C)cc3c2[C@@H](C)CC[C@@H]3[C@@H](C)CCC=C(C)C)OC[C@@H](O)[C@H]1O", "note": "[SECO-PSEUDOPTEROSIN B]", "values": [{"measurement": "Activity", "setting": "[2]", "result": 75, "unit": "%"}]}
{"molecule": "CC(C)=CCC[C@H](C)[C@H]1CC[C@H](C)c2c1cc(C)c(O)c2O[C@@H]1OC[C@@H](O)[C@@H](O)[C@@H]1O", "note": "[SECO-PSEUDOPTEROSIN A]", "values": [{"measurement": "Activity", "setting": "[2]", "result": 75, "unit": "%"}]}
{"molecule": "CC(C)=C[C@H]1C[C@H](C)[C@H]2CC[C@H](C)c3c(O[C@@H]4OC[C@@H](O)[C@H](O)[C@H]4O)c(O)c(C)c1c32", "note": "[PSEUDOPTEROSIN A]", "values": [{"measurement": "ED50", "setting": "[1]", "result": 10, "unit": "mg/kg"}, {"measurement": "ED50", "setting": "[7]", "result": 8.3, "unit": "µg"}, {"measurement": "Activity", "setting": "[2]", "result": 75, "unit": "%"}, {"measurement": "ED50", "setting": "[3]", "result": 4, "unit": "mg/kg"}]}
